From PMC2680961, “Homologous desensitization of signalling by the alpha (α) isoform of the human thromboxane A2 receptor: A specific role for nitric oxide signalling” (Biochimica et Biophysica Acta, 2007)

Tests used:
[1] = system: eNOS; assay: eNOS phosphorylation (anti-phospho eNOS^Ser1177 western blot); type: cell-based, human; details: HEK.TPα cells (also HEK 293, HEK.TPβ); 1 μM U46619 or 10 U/ml Thrombin, 5 min, 37 °C
Protocol: In order to assess eNOS phosphorylation, HEK.TPα, HEK.TPβ or HEK 293 cells (2 × 10^6 cells/10-cm dish) were plated some 48 h prior to experimentation. Cells were incubated with vehicle, 1 μM U46619 or 10 U/ml Thrombin for 5 min at 37 °C and aliquots of whole cell protein (100 μg/lane) were analysed by SDS-PAGE/western blot. Blots were initially screened using the anti-phospho eNOS^1177 as per supplier's instructions (Cell Signalling Technology) and, following stripping, were subsequently re-screened using the anti-eNOS (Transduction Laboratories).

[2] = design: method as in PMID 10508233; details: rapidly hydrolysed to inactive metabolite TXB2; estimated; cited from earlier work

Compound | eNOS phosphorylation at Ser^1177 [1] | half-life [2] [s]
thrombin | readily lead to eNOS phosphorylation | 
CCCCC[C@H](O)/C=C/[C@H]1O[C@H]2C[C@H](O2)[C@@H]1C/C=C\CCCC(=O)O [TXA2] |  | 30
